From patent publication US8632792B2, “Cooling sensation agent composition and sensory stimulation agent composition” (Takasago International Corporation, priority 2008, dated 2014)

How the values were obtained:
[1] = Cooling towel (washing processed), organoleptic ranking of cooling action; assay type: in vivo; settings: after washing treatment and air drying for 6 hours
Source text: (§1) Each of di-1-menthyl carbonate, di-1-isopulegol carbonate, 1-menthyl-1-menthoxy ethyl carbonate, 1-menthyl-1-isopulegol carbonate, 1-menthoxypropanediol benzaldehyde acetal, 1-menthoxypropanediol methylheptenone ketal, 1-menthoxypropanediol-1-citronellal acetal, menthyl palmitate, menthyl stearate, menthyl isostearate, 1-menthoxypropanediol, and an equivalent-weight mixture of 1-menthyl-menthoxy ethyl carbonate, menthoxypropanediol citronellal acetal and menthyl isostearate was compounded with a base washing detergent solution at a concentration of 1%.
(§2) A pure cotton hand towel (white plain towel made in Japan, 20 cm×20 cm, degrease-finished) was hand-washed for 3 minutes at a particular concentration (water: 10 L, detergent: 3 g, water temperature: 17° C.), then washed with the same amount of water for 2 minutes, squeezed lightly, and air-dried indoor for 6 hours. The hand towels prepared, the hand towels after 24 hours and the hand towels after 48 hours were brought into contact with the internal bronchia and the cooling action thereof was determined organoleptically. The determination was conducted as same as Example 1, that is, […] professional examiners are divided into three groups; different 5 kinds of samples were ranked from the strongest to weakest in action respectively by the examiners in three groups; and the result was shown by the sum of the ranking numbers.

internal bronchia = assay: as above; assay type: in vivo; settings: for sum of the ranking numbers (cooling effect on treated hand towel after washing): 1% in base washing detergent, low sum = strong; for cooling action (in words), strength and durability: washing processed towel, comparison within the compound class
Source text: as §1, §2

professional examiners = assay: Cooling treated towel (direct spraying), organoleptic ranking of cooling action; assay type: in vivo; settings: for cooling action (in words), strength and consistency: comparison over 10 min to 24 hr, within the compound class
Source text: 1% ethanol solution of each of di-1-menthyl carbonate, di-1-isopulegol carbonate, 1-menthyl-1-menthoxy ethyl carbonate, 1-menthyl-1-isopulegol carbonate, 1-menthoxypropanediol methylheptenone ketal, 1-menthoxypropanediol benzaldehyde acetal, 1-menthoxypropanediol-l-citronellal acetal, menthyl palmitate, menthyl stearate, menthyl isostearate, 1-menthol, and an equivalent-weight mixture of 1-menthyl-menthoxy ethyl carbonate, menthoxypropanediol citronellal acetal and menthyl isostearate was prepared. The solution was sprayed on a pure cotton hand towel (white plain towel made in Japan, 20 cm×20 cm, degrease-finished) in an amount of 1 g. After the towel was air-dried for 10 minutes, 3 hours, or 24 hours, the cooling action of each towel was determined organoleptically. Fifteen professional examiners with 5 years or more of experience are divided into three groups; different 5 kinds of samples were ranked from the strongest to weakest in action respectively by the examiners in three groups; and the result was shown by the sum of the ranking numbers.

[2] = Group B, 24 hr (third time point)
[3] = Group A, air-dried 10 min, 1 g of 1% ethanol solution sprayed on cotton towel, ranked strongest to weakest (low sum = strong)
[4] = Group A, air-dried 3 hr, 1% ethanol solution, low sum = strong
[5] = Group A, air-dried 24 hr, 1% ethanol solution, low sum = strong
[6] = Group B, air-dried 10 min, 1% ethanol solution, low sum = strong
[7] = Group B, air-dried 3 hr, 1% ethanol solution, low sum = strong
[8] = Group B, air-dried 24 hr, 1% ethanol solution, low sum = strong
[9] = Group C, air-dried 10 min, 1% ethanol solution, low sum = strong
[10] = Group C, air-dried 3 hr, 1% ethanol solution, low sum = strong
[11] = Group C, air-dried 24 hr, 1% ethanol solution, low sum = strong

Row | SMILES | sum of the ranking numbers (cooling effect on treated hand towel after washing) (internal bronchia; Group A, 6 hr) | sum of the ranking numbers (cooling effect on treated hand towel after washing) (internal bronchia; Group A, 24 hr) | sum of the ranking numbers (cooling effect on treated hand towel after washing) (internal bronchia; Group A, 48 hr) | sum of the ranking numbers (cooling effect on treated hand towel after washing) (internal bronchia; Group B, 6 hr) | sum of the ranking numbers (cooling effect on treated hand towel after washing) (internal bronchia; [2]) | sum of the ranking numbers (cooling effect on treated hand towel after washing) (internal bronchia; Group B, 24 hr) | sum of the ranking numbers (cooling effect on treated hand towel at direct spraying) (professional examiners; [3]) | sum of the ranking numbers (cooling effect on treated hand towel at direct spraying) (professional examiners; [4]) | sum of the ranking numbers (cooling effect on treated hand towel at direct spraying) (professional examiners; [5]) | sum of the ranking numbers (cooling effect on treated hand towel at direct spraying) (professional examiners; [6]) | sum of the ranking numbers (cooling effect on treated hand towel at direct spraying) (professional examiners; [7]) | sum of the ranking numbers (cooling effect on treated hand towel at direct spraying) (professional examiners; [8]) | also measured
1 | CC1CCC(C(C)C)C(OCC(O)CO)C1 (centres unmarked) [1-menthoxypropanediol, reference compound] |  |  |  |  |  |  |  |  |  |  |  |  | cooling action (in words) [1]: did not have cooling action
2 | CC(C)[C@@H]1CC[C@@H](C)C[C@H]1OC(=O)O[C@@H]1C[C@H](C)CC[C@H]1C(C)C [Di-l-menthyl carbonate, di-1-menthyl carbonate] | 16 | 18 | 18 | 16 | 16 | 15 | 24 | 21 | 20 | 24 | 19 | 19 | sum of the ranking numbers (cooling effect on treated hand towel after washing) (internal bronchia; Group C, 6 hr): 16; sum of the ranking numbers (cooling effect on treated hand towel after washing) (internal bronchia; Group C, 24 hr): 21; sum of the ranking numbers (cooling effect on treated hand towel after washing) (internal bronchia; Group C, 48 hr): 21; cooling action (in words), strength and durability (internal bronchia): weakest; sum of the ranking numbers (cooling effect on treated hand towel at direct spraying) (professional examiners; [9]): 17; sum of the ranking numbers (cooling effect on treated hand towel at direct spraying) (professional examiners; [10]): 21; sum of the ranking numbers (cooling effect on treated hand towel at direct spraying) (professional examiners; [11]): 21
3 | CC(C)[C@@H]1CC[C@@H](C)C[C@H]1O [l-Menthol, 1-menthol, reference compound] | 25 | 25 | 25 | 25 | 25 | 25 | 5 | 24 | 25 | 5 | 25 | 25 | cooling action (in words) (professional examiners; direct spraying, after air drying for 10 minutes): strongest cooling action; cooling action (in words), strength and consistency (professional examiners; direct spraying): less consistent
4 | CC(C)=CCC[C@H](C)CC1OCC(CO[C@@H]2C[C@H](C)CC[C@H]2C(C)C)O1 (some centres unmarked) [1-menthoxypropanediol-1-citronellal acetal] |  |  |  | 13 | 13 | 13 |  |  |  | 18 | 16 | 16 | 
5 | CC(C)=CCCC1(C)OCC(CO[C@@H]2C[C@H](C)CC[C@H]2C(C)C)O1 (some centres unmarked) [1-menthoxypropanediol methylheptenone ketal] |  |  |  | 10 | 10 | 11 |  |  |  | 13 | 6 | 6 | cooling action (in words), strength and consistency (professional examiners; direct spraying): strongest in action
6 | CCCCCCCCCCCCCCCCCC(=O)OC1CC(C)CCC1C(C)C (centres unmarked) [Menthyl stearate, menthyl stearate] |  |  |  |  |  |  |  |  |  |  |  |  | sum of the ranking numbers (cooling effect on treated hand towel after washing) (internal bronchia; Group C, 6 hr): 21; sum of the ranking numbers (cooling effect on treated hand towel after washing) (internal bronchia; Group C, 24 hr): 18; sum of the ranking numbers (cooling effect on treated hand towel after washing) (internal bronchia; Group C, 48 hr): 17; sum of the ranking numbers (cooling effect on treated hand towel at direct spraying) (professional examiners; [9]): 21; sum of the ranking numbers (cooling effect on treated hand towel at direct spraying) (professional examiners; [10]): 15; sum of the ranking numbers (cooling effect on treated hand towel at direct spraying) (professional examiners; [11]): 17
7 | CCCCCCCCCCCCCCCC(=O)OC1CC(C)CCC1C(C)C (centres unmarked) [Menthyl palmitate, menthyl palmitate] |  |  |  |  |  |  |  |  |  |  |  |  | sum of the ranking numbers (cooling effect on treated hand towel after washing) (internal bronchia; Group C, 6 hr): 18; sum of the ranking numbers (cooling effect on treated hand towel after washing) (internal bronchia; Group C, 24 hr): 16; sum of the ranking numbers (cooling effect on treated hand towel after washing) (internal bronchia; Group C, 48 hr): 17; sum of the ranking numbers (cooling effect on treated hand towel at direct spraying) (professional examiners; [9]): 15; sum of the ranking numbers (cooling effect on treated hand towel at direct spraying) (professional examiners; [10]): 17; sum of the ranking numbers (cooling effect on treated hand towel at direct spraying) (professional examiners; [11]): 17
8 | C=C(C)[C@@H]1CC[C@@H](C)C[C@H]1OC(=O)O[C@@H]1C[C@H](C)CC[C@H]1C(=C)C [Di-l-isopulegol carbonate, di-1-isopulegol carbonate] | 14 | 13 | 14 |  |  |  | 17 | 12 | 11 |  |  |  | melting point: 86 to 87 °C
9 | CC(C)[C@@H]1CC[C@@H](C)C[C@H]1OCC1COC(c2ccccc2)O1 (some centres unmarked) [1-menthoxypropanediol benzaldehyde acetal] |  |  |  | 11 | 11 | 11 |  |  |  | 15 | 9 | 9 | 
10 | CC(C)[C@@H]1CC[C@@H](C)C[C@H]1OCCOC(=O)O[C@@H]1C[C@H](C)CC[C@H]1C(C)C [l-Menthyl-l-menthoxy ethyl carbonate, 1-menthyl-1-menthoxy ethyl carbonate] | 8 | 7 | 7 |  |  |  | 10 | 5 | 5 |  |  |  | cooling action (in words), strength and durability (internal bronchia): strongest; cooling action (in words), strength and consistency (professional examiners; direct spraying): superior both in initial strength and consistency
11 | C=C(C)[C@@H]1CC[C@@H](C)C[C@H]1OC(=O)O[C@@H]1C[C@H](C)CC[C@H]1C(C)C [l-Menthyl-l-isopulegol carbonate, 1-menthyl-1-isopulegol carbonate] | 12 | 12 | 11 |  |  |  | 19 | 1 | 14 |  |  |  | 
